These results are taken from patent US7906486B2, “Method of treating or preventing tissue deterioration, injury or damage due to disease of mucosa” (SciClone Pharmaceuticals, Inc., priority 2007, dated 2011).

The test system of experiment [1] is oral mucositis induced by fractionated radiation (eight doses of 7.5 Gy, left buccal cheek pouch). Briefly: Oral mucositis induced by fractionated radiation in hamsters, mucositis scoring (Example 3, SCI-03). The format is in vivo, Syrian Golden Hamsters. Details: key: 0: Pouch completely healthy. No erythema or vasodilation.; 1: Light to severe erythema and vasodilation. No erosion of mucosa.; 2: Severe erythema and vasodilation. Erosion of superficial aspects of mucosa leaving denuded areas. Decreased stippling of mucosa.; 3: Formation of off-white ulcers in one or more places. Ulcers may have a yellow/gray due to pseudomembrane. Cumulative size of ulcers should equal about ¼ of the pouch. Severe erythema and vasodilation.; 4: Cumulative seize of ulcers should equal about ½ of the pouch. Loss of pliability. Severe erythema and vasodilation.; 5: Virtually all of pouch is ulcerated. Loss of pliability (pouch can only partially be extracted from mouth).
Excerpt: (§1) The fractionated radiation model in hamsters, developed by the Principal Investigator, has proven to be an accurate, efficient and cost-effective technique to provide a preliminary evaluation of anti-mucositis compounds. In this model, hamsters receive 8 doses of 7.5 Gy to the left cheek pouch on days 0, 1, 2, 3, […], rather than the single dose of 40 Gy on day 0 that is used in acute radiation studies. The rationale for using this scheduling for the radiation is that it more closely resembles the clinical courses of radiotherapy given to cancer patients. The course of mucositis in this model is well defined and results in peak mucositis scores approximately 14-16 days following radiation. Mortality (generally from the side effects of anesthesia) in the fractionated radiation model is slightly higher than that seen in the acute radiation model and group sizes are increased (to 10 per group) to allow for this.
(§2) Forty (40) male Syrian Golden Hamsters were given eight doses of radiation of 7.5 Gy each directed to their left buccal cheek pouch on days 0, 1, 2, 3, 6, 7, 8 and 9. This was accomplished by anesthetizing the animals and everting the left buccal pouch, while protecting the rest of the animal's bodies with a lead shield. Test materials were given by sub-cutaneous injection once daily as detailed in Table 9. Mucositis was evaluated clinically starting on day 7, and continuing on alternate days until day 35. Test articles were given as outlined Table 9, Groups 1 and 2 were dosed from Day −1 to Day 29, Group 3 was dosed on the days of radiation only, Group 4 was dosed on the days between Day −15 and Day 29 on which no radiation is given (Day −1, Day 4, Day 5 and Day 10 to Day 29).
(§3) The effect on mucositis of each drug treatment compared to placebo was assessed according to the following parameters:
(§4) On each evaluation day, the number of animals with a blinded mucositis score of ≧3 in each drug treatment group was compared to the control group. Differences were compared on a cumulative basis and statistical significance was determined by chi-square analysis. Efficacy, in this analysis, is defined by a significant reduction in the number of days that a group of animals had ulcerations (scores ≧3) when compared to the control group.
(§5) For each evaluation day the scores of the control group were compared to those of the treated groups using non-parametric rank sum analysis. Treatment success was considered as a statistically significant lowering of scores in the treated group on 2 or more days from day 6 to day 28.
as §2, with “daily at 8:00 am” for “daily”, “9. […]” for “9. Mucositis was evaluated clinically starting on day 7, and continuing on alternate days until day 35.”, “2 was” for “2 were”, “radiation only (days 0-3 and days 6-10),” for “radiation only,”, “Day −1” for “Day −15”, “Day 4 to” for “Day 4,”
(§6) Radiation was generated with a Philips 160 kVp (kilovolt potential) (18.75-ma) X-ray source at a focal distance of 30 cm, with a 3.0 mm hardened Al filtration system. Irradiation was targeted to the left buccal pouch mucosa at a rate of 3.32 Gy/minute. […] Using this calibration, the energy received by each animal at each radiation dose was approximately 64.5 nC (nanoCoulombs) at each time point. Prior to irradiation, animals were anesthetized with an intraperitoneal injection of ketamine (160 mg/kg) and xylazine (8 mg/kg). The left buccal pouch was everted, fixed and isolated using a lead shield.
(§7) The mucositis score, weight change and survival were measured throughout the study as described above. […]

The test system is the same in experiment [2]. The experiment is described as above. The format is in vivo, Syrian Golden Hamsters. Further details: key: 0: Pouch completely healthy. No erythema or vasodilation.; 1: Light to severe erythema and vasodilation. No erosion of mucosa.; 2: Severe erythema and vasodilation. Erosion of superficial aspects of mucosa leaving denuded areas, but no frank ulceration. Decreased stippling of mucosa.; 3: Formation of off-white ulcers in one or more places. Ulcers may have a yellow/gray due to pseudomembrane. Cumulative size of ulcers should equal about ¼ of the pouch. Severe erythema and vasodilation.; 4: Cumulative seize of ulcers should equal about ½ of the pouch. Loss of pliability. Severe erythema and vasodilation.; 5: Virtually all of pouch is ulcerated. Loss of pliability (pouch can only partially be extracted from mouth).
Excerpt: as §1, §2, §3, §4, §5
as §2, with “daily at 8:00 am” for “daily”, “9. […]” for “9. Mucositis was evaluated clinically starting on day 7, and continuing on alternate days until day 35.”, “2 was” for “2 were”, “radiation only (days 0-3 and days 6-10),” for “radiation only,”, “Day −1” for “Day −15”, “Day 4 to” for “Day 4,”
as §6, §7

The subject of experiment [3] is bone marrow cells. As to conditions: cited from earlier work.
[4] abbreviates: Group 2, day 13, individual animals (two score lines each).
Setting [5] is: Group 2, day 23, individual animals (two score lines each).
The mark [6] stands for this setting: Group 2, day 25, individual animals (two score lines each).
[7] abbreviates: Group 2, day 27, individual animals (two score lines each).
Where [8] appears, read: Group 2, day 31, individual animals (two score lines each).
Setting [9] is: Group 2, day 33, individual animals (two score lines each).

Molecules are shown by their SMILES. Where “and” joins values, the source holds several entries; their conditions need not be identical. Equal entries are not always repeated.

For the compound `N[C@H](CCC(=O)N[C@@H](Cc1c[nH]c2ccccc12)C(=O)O)C(=O)O` [SCV-07, γ-D-glutamyl-L-tryptophan], the Mucositis score is 0 in experiment [1] (Group 2, day 7, individual animals (two score lines each)); 1 (5×) and 0 (2×) in experiment [1] (Group 2, day 9, individual animals (two score lines each)); 1 in experiment [1] (Group 2, day 11, individual animals (two score lines each)); 3 in experiment [1] (setting [4]); 3 in experiment [1] (Group 2, day 15, individual animals (two score lines each)); 3 in experiment [1] (Group 2, day 17, individual animals (two score lines each)). Besides, the Mucositis score is 3 in experiment [1] (Group 2, day 21, individual animals (two score lines each)); 3 in experiment [1] (setting [5]); 3 in experiment [1] (setting [6]); 3 in experiment [1] (setting [7]); 0 (2×) and 1 (3×) in experiment [1] (setting [8]); 1 in experiment [1] (setting [9]). The Mucositis score was 1 (3×) and 0 (4×) in experiment [1] (Group 2, day 35, individual animals (two score lines each)); 2 in experiment [2] (setting [4]); 2 in experiment [2] (setting [5]); 2 in experiment [2] (setting [6]); 2 in experiment [2] (setting [7]); 2 in experiment [2] (setting [8]). The Mucositis score in experiment [2] (setting [9]) worked out at 2. Further, the “expression of Thy-1.2 on bone marrow cells” value in experiment [3] is given as “stimulates”.
